Test results taken from patent US20230250060A1 (IFM Due, Inc., priority 2022, published 2023).

Molecular target: T1, STING (Homo sapiens, UniProt Q86WV6, G230A/H232R/R293Q/R71H)
T1 construct: host or cells: THP1-Dual KO-IFNAR2 cells
Experiment: STING reporter assay (luciferase) in THP1-Dual KO-IFNAR2 cells stimulated with 2′3′cGAMP
Assay type: cell-based
Settings: 2′3′cGAMP 15 μM final, 24 h, luciferase reporter activity, read-out: Pharmaron, THP1_IFNAR2 STING 24 h Luci Normalized: GeoMean EC50
Protocol: STING pathway activation by the compounds described herein was measured using TTIP1-Dual™ cells (KO-IFNAR2).
TTIP1-Dual™ KO-IFNAR2 Cells (obtained from invivogen) were maintained in RPMI, 10% FCS, 5 ml P/S, 2 mM L-glut, 10 mM Hepes, and 1 mM sodium pyruvate. Compounds were spotted in empty 384 well tissue culture plates (Greiner 781182) by Echo for a final concentration of 0.0017-100 μM. Cells were plated into the TC plates at 40 μL per well, 2×10E6 cells/mL. For activation with STING ligand, 2′3′cGAMP (MW 718.38, obtained from Invivogen), was prepared in Optimem media.
The following solutions were prepared for each 1×384 plate: • Solution A: 2 mL Optimem with one of the following stimuli: • […] • Solution B: 2 mL Optimem with […] Lipofectamine 2000→Incubate 5 min at RT
2 mL of solution A and 2 ml Solution B was mixed and incubated for 20 min at room temperature (RT). 20 μL of transfection solution (A+B) was added on top of the plated cells, with a final 2′3′cGAMP concentration of 15 μM. The plates were then centrifuged immediately at 340 g for 1 minute, after which they were incubated at 37° C., 5% CO2, >98% humidity for 24 h. Luciferase reporter activity was then measured. EC50 values were calculated by using standard methods known in the art.
Luciferase reporter assay: 10 μL of supernatant from the assay was transferred to white 384-plate with flat bottom and squared wells. One pouch of QUANTI-Luc™ Plus was dissolved in 25 mL of water. 100 μL of QLC Stabilizer per 25 mL of QUANTI-Luc™ Plus solution was added. 50 μL of QUANTI-Luc™ Plus/QLC solution per well was then added. Luminescence was measured on a Platereader (e.g., Spectramax I3X (Molecular Devices GF3637001)).
Luciferase reporter activity was then measured. EC50 values were calculated by using standard methods known in the art.

T1 sequence (Q86WV6 whole entry R71H/G230A/H232R/R293Q): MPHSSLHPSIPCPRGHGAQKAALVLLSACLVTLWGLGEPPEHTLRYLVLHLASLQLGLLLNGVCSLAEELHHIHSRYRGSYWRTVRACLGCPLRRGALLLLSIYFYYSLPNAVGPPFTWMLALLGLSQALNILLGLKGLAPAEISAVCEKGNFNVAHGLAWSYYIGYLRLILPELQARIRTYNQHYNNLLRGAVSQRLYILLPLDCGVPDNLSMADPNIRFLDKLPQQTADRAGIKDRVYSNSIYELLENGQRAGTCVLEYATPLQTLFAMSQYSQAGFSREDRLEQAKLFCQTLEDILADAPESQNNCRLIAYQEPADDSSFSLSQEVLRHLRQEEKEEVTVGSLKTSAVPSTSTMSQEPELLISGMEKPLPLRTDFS

SMILES	EC50 [µM]
O=C(Nc1c[nH]c2ccc(O[C@H]3C[C@@H](c4ccc(C(F)(F)F)cc4)C3)cc12)c1nccs1 [Compound 175, N-(5-((1s,3s)-3-(4-(trifluoromethyl)phenyl)cyclobutoxy)-1H-indol-3-yl)thiazole-2-carboxamide]	0.2 to 1
O=C(Nc1c[nH]c2ccc(O[C@H]3C[C@@H](c4ccc(C(F)(F)F)cc4)C3)cc12)c1ncccc1F [Compound 174, 3-fluoro-N-(5-((1s,3s)-3-(4-(trifluoromethyl)phenyl)cyclobutoxy)-1H-indol-3-yl)picolinamide]	0.2 to 1
O=C(Nc1c[nH]c2ccc(OCCc3ccc(C(F)(F)F)cc3)cc12)c1ncco1 [Compound 161, N-(5-(4-(trifluoromethyl)phenethoxy)-1H-indol-3-yl)oxazole-2-carboxamide]	0.2 to 1
O=C(Nc1c[nH]c2ccc(CCOc3ccc(C(F)(F)F)cc3)cc12)c1cscn1 [Compound 202, N-(5-(2-(4-(trifluoromethyl)phenoxy)ethyl)-1H-indol-3-yl)thiazole-4-carboxamide]	0.2 to 1
O=C(Nc1c[nH]c2ccc(OCC[C@@H]3C[C@@H]4CN(CC(F)(F)F)C[C@@H]4C3)cc12)c1ncccc1F [Compound 187, 3-fluoro-N-(5-(2-((3aR,5r,6aS)-2-(2,2,2-trifluoroethyl)octahydrocyclopenta[c]pyrrol-5-yl)ethoxy)-1H-indol-3-yl)picolinamide]	1 to 5
O=C(Nc1c[nH]c2ccc(OCC[C@@H]3C[C@@H]4CN(CC(F)(F)F)C[C@@H]4C3)cc12)C1CC2(CC2)C1 [Compound 222, N-(5-{2-[(3aR,5R,6aS)-2-(2,2,2-trifluoroethyl)octahydrocyclopenta[c]pyrrol-5-yl]ethoxy}-1H-indol-3-yl)spiro[2.3]hexane-5-carboxamide]	0.2 to 1
Cn1cc(C(=O)Nc2c[nH]c3ccc(O[C@H]4C[C@@H](c5ccc(C(F)(F)F)nc5)C4)cc23)nn1 [Compound 217, 1-methyl-N-(5-(cis-3-(6-(trifluoromethyl)pyridin-3-yl)cyclobutoxy)-1H-indol-3-yl)-1H-1,2,3-triazole-4-carboxamide]	0.2 to 1
O=C(Nc1c[nH]c2ccc(OCc3ccc(C(F)(F)F)cc3)cc12)C1CC12CC2 (stereo not shown) [Compound 101, N-(5-((4-(trifluoromethyl)benzyl)oxy)-1H-indol-3-yl)spiro[2.2]pentane-1-carboxamide]	0.2 to 1
CC12CC(C(=O)Nc3c[nH]c4ccc(CCOc5ccc(C(F)(F)F)cc5)cc34)(C1)C2 [Compound 199, 3-methyl-N-(5-(2-(4-(trifluoromethyl)phenoxy)ethyl)-1H-indol-3-yl)bicyclo[1.1.1]pentane-1-carboxamide]	0.2 to 1
Cn1ccnc1C(=O)Nc1c[nH]c2ccc(OCCc3ccc(C(F)(F)F)cc3)cc12 [Compound 146, 1-methyl-N-(5-(4-(trifluoromethyl)phenethoxy)-1H-indol-3-yl)-1H-imidazole-2-carboxamide]	0.04 to 0.2
O=C(Nc1c[nH]c2ccc(O[C@H]3C[C@H](c4ccc(C(F)(F)F)cc4)C3)cc12)C1CC2(COC2)C1 [Compound 211, N-{5-[(1R,3R)-3-[4-(trifluoromethyl)phenyl]cyclobutoxy]-1H-indol-3-yl}-2-oxaspiro[3.3]heptane-6-carboxamide]	0.04 to 0.2
Cc1oncc1C(=O)Nc1c[nH]c2ccc(CCOc3ccc(C(F)(F)F)cc3)cc12 [Compound 118]	5 to 100
Cn1cc(C(=O)Nc2c[nH]c3ccc(OCc4ccc(C(F)(F)F)cc4)cc23)nn1 [Compound 240, 1-methyl-N-(5-((4-(trifluoromethyl)benzyl)oxy)-1H-indol-3-yl)-1H-1,2,3-triazole-4-carboxamide]	1 to 5
CC12CC(C(=O)Nc3c[nH]c4ccc(O[C@H]5C[C@H](c6ccc(C(F)(F)F)cc6)C5)cc34)(C1)C2 [Compound 238, 3-methyl-N-{5-[(1R,3R)-3-[4-(trifluoromethyl)phenyl]cyclobutoxy]-1H-indol-3-yl}bicyclo[1.1.1]pentane-1-carboxamide]	0.04 to 0.2
Cn1cc(C(=O)Nc2c[nH]c3ccc(O[C@H]4C[C@@H](c5ccc(C(F)(F)F)cc5)C4)cc23)nn1 [Compound 241]	0.2 to 1
CC12CC(C(=O)Nc3c[nH]c4ccc(OCCc5ccc(C(F)(F)F)cc5)cc34)(C1)C2 [Compound 107, 3-methyl-N-(5-(4-(trifluoromethyl)phenethoxy)-1H-indol-3-yl)bicyclo[1.1.1]pentane-1-carboxamide]	0.2 to 1
O=C(Nc1c[nH]c2ccc(OCCc3ccc(C(F)(F)F)cc3)cc12)C1CC12CC2 (stereo not shown) [Compound 126, N-(5-(4-(trifluoromethyl)phenethoxy)-1H-indol-3-yl)spiro[2.2]pentane-1-carboxamide]	0.04 to 0.2
CC12CC(C(=O)Nc3c[nH]c4ccc(OCC[C@@H]5C[C@@H]6CN(CC(F)(F)F)C[C@@H]6C5)cc34)(C1)C2 [Compound 142, 3-methyl-N-(5-(2-((3aR,5r,6aS)-2-(2,2,2-trifluoroethyl)octahydrocyclopenta[c]pyrrol-5-yl)ethoxy)-1H-indol-3-yl)bicyclo[1.1.1]pentane-1-carboxamide]	0.2 to 1
O=C(Nc1c[nH]c2ccc(O[C@H]3C[C@H](c4ccc(C(F)(F)F)cc4)C3)cc12)C1C2COCC21 (stereo partly drawn) [Compound 207, N-(5-(trans-3-(4-(trifluoromethyl)phenyl)cyclobutoxy)-1H-indol-3-yl)-3-oxabicyclo[3.1.0]hexane-6-carboxamide]	0.2 to 1
O=C(Nc1c[nH]c2ccc(O[C@H]3C[C@@H](c4ccc(C(F)(F)F)nc4)C3)cc12)c1ccccc1 [Compound 216, N-(5-(cis-3-(6-(trifluoromethyl)pyridin-3-yl)cyclobutoxy)-1H-indol-3-yl)benzamide]	0.04 to 0.2
O=C(Nc1c[nH]c2ccc(O[C@H]3C[C@@H](c4ccc(C(F)(F)F)cc4)C3)cc12)C1CC2(CCC2)C1 [Compound 155, N-(5-((1s,3s)-3-(4-(trifluoromethyl)phenyl)cyclobutoxy)-1H-indol-3-yl)spiro[3.3]heptane-2-carboxamide]	0.2 to 1
O=C(Nc1c[nH]c2ccc(O[C@H]3C[C@@H](c4ccc(C(F)(F)F)nc4)C3)cc12)c1ccc(C(F)(F)F)cc1 [Compound 214, 4-(trifluoromethyl)-N-(5-(cis-3-(6-(trifluoromethyl)pyridin-3-yl)cyclobutoxy)-1H-indol-3-yl)benzamide]	0.04 to 0.2
O=C(Nc1c[nH]c2ccc(O[C@H]3C[C@H](c4ccc(C(F)(F)F)cc4)C3)cc12)c1ncccc1F [Compound 231, 3-fluoro-N-{5-[(1R,3R)-3-[4-(trifluoromethyl)phenyl]cyclobutoxy]-1H-indol-3-yl}pyridine-2-carboxamide]	0.04 to 0.2
Cn1nccc1C(=O)Nc1c[nH]c2ccc(OCc3ccc(C(F)(F)F)cc3)cc12 [Compound 162, 1-methyl-N-(5-((4-(trifluoromethyl)benzyl)oxy)-1H-indol-3-yl)-1H-pyrazole-5-carboxamide]	0.2 to 1
O=C(Nc1c[nH]c2ccc(O[C@H]3C[C@@H](c4ccc(C(F)(F)F)cc4)C3)cc12)c1ccccn1 [Compound 170, N-(5-((1s,3s)-3-(4-(trifluoromethyl)phenyl)cyclobutoxy)-1H-indol-3-yl)picolinamide]	1 to 5
